Experimental data: US7838676B2, “Beta-secretase modulators and methods of use” (Amgen Inc., priority 2005, dated 2010)

The compounds below were run on Aβ40 in conditioned medium of APP containing cells (assay: BACE Cell-Based Assay (Aβ40 sandwich ELISA, HEK-293 cells stably expressing APP)). Conditions: Homo sapiens, HEK293, inhibition of Aβ 40 in conditioned media after 24 h.
Description: The cell-based assay measures inhibition or reduction of Aβ40 in conditioned medium of test compound treated APP containing cells.
Cells stably expressing Amyloid Precursor Protein (APP) were plated at a density of 40K cells/well in 96 well plates (Costar). The cells were cultivated for 24 h at 37° C. and 5% CO2 in DMEM supplemented with 10% FBS. The test compounds were then added to cells in 10-point dose response concentrations with the starting concentration being either 100 μM or 10 μM. The compounds were diluted from stock solutions in DMSO and the final DMSO concentration of the test compounds on cells was 0.1%. After 24 h of incubation with the test compounds the supernatant conditioned media was collected and the Aβ 40 levels were determined using a sandwich ELISA. The IC50 of the compound was calculated from the percent of control or percent inhibition of Aβ 40 as a function of the concentration of the test compound.
The sandwich ELISA to detect Aβ 40 was performed in 96 well microtiter plates, which were pre-treated with goat anti-rabbit IgG (Pierce). The capture and detecting antibody pair that were used to detect Aβ 40 from cell supernatants were affinity purified pAb40 (Biosource) and biotinylated 6E10 (Signet Labs Inc.), respectively. The optimal concentration for the pAb40 antibody was 3 μg/ml in Superblock/TBS (Pierce) that was supplemented with 0.05% Tween 20 (Sigma). Optimal concentration for the detection antibody 6E10-biotinylated was 0.5 μg/ml in Superblock/TBS (Pierce) that had been supplemented with 2% normal goat serum and 2% normal mouse serum.
Cellular supernatants were incubated with the capture antibody for 3 h at 4° C., followed by 3 wash steps in TBS-tween (0.05%). The detecting antibody incubation was for 2 h at 4° C., again followed by the wash steps as described previously. The final readout of the ELISA is Time-Resolved Fluorescence (counts per minute) using Delfia reagents Streptavidin-Europium and Enhancement solutions (Perkin Elmer) and the Victor 2 multilabel counter (Perkin Elmer).

IC50, ≤ 5 µM:
CCc1ccc2c(c1)[C@@H](NC[C@@H](O)[C@H](Cc1ccccc1)NC(=O)c1cc(N3CCCC3=O)ccc1OC)CC1(CCCC1)O2 [Example 30, N-((2S,3R)-4-((S)-6-ethyl-2,2-spirocyclopentylchroman-4-ylamino)-3-hydroxy-1-phenylbutan-2-yl)-2-methoxy-5-(2-oxopyrrolidin-1-yl)benzamide]
CCc1ccc2c(c1)[C@@H](NC[C@@H](O)[C@H](Cc1ccccc1)NC(=O)c1cccc(-c3ccccn3)c1)CC1(CCCC1)O2 [Example 106]
CCc1ccc2c(c1)[C@@H](NC[C@@H](O)[C@H](Cc1ccccc1)NC(=O)c1cncnc1)CC1(CCC1)O2 [Example 19, N-((2S,3R)-4-((S)-6-ethyl-2,2-spirocyclobutylchroman-4-ylamino)-3-hydroxy-1-phenylbutan-2-yl)pyrimidine-5-carboxamide]
O=C(N[C@@H](Cc1ccccc1)[C@H](O)CN[C@H]1CC2(CCC2)Oc2ccc(Br)cc21)c1ccno1 [Example 162, N-((1S,2R)-3-(((4S)-6-bromo-3,4-dihydrospiro[chromene-2,1′-cyclobutan]-4-yl)amino)-2-hydroxy-1-(phenylmethyl)propyl)-5-isoxazolecarboxamide]
CCc1ccc2c(c1)[C@@H](NC[C@@H](O)[C@H](Cc1ccccc1)NC(=O)c1ccnc(N3CCOCC3)c1)CC1(CCCC1)O2 [Example 169, N-((2S,3R)-4-((S)-6-ethyl-2,2-spirocyclopentylchroman-4-ylamino)-3-hydroxy-1-phenylbutan-2-yl)-2-morpholinoisonicotinamide]
CCc1ccc2c(c1)[C@@H](NC[C@@H](O)[C@H](Cc1ccccc1)NC(=O)c1ccnc(N3CCCCC3)c1)CC1(CCCC1)O2 [Example 167, N-((2S,3R)-4-((S)-6-ethyl-2,2-spirocyclopentylchroman-4-ylamino)-3-hydroxy-1-phenylbutan-2-yl)-2-(piperidin-1-yl)isonicotinamide]
Cc1cnc2c(c1)[C@@H](NC[C@@H](O)[C@H](Cc1cc(F)cc(F)c1)NC(=O)c1ccc(N3CCCC3=O)c(F)c1)CC1(CCC1)C2 [Example 146, N-((1S,2R)-1-((3,5-difluorophenyl)methyl)-2-hydroxy-3-(((5′S)-3′-methyl-5′,8′-dihydro-6′H-spiro[cyclobutane-1,7′-quinolin]-5′-yl)amino)propyl)-3-fluoro-4-(2-oxo-1-pyrrolidinyl)benzamide]
